Results from ChEMBL document CHEMBL1201862, “PubChem BioAssay data set” (2004).
The source made the active and inactive calls.

Columns and labels:
INS1 = test: beta cell apoptosis inhibitors, cytokine rescue, dose response, luminescence, retest (AID 449756); type: functional, cell-based; conditions: Rattus norvegicus;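 also: cell death triggered by IL-1 beta plus TNF-alpha plus IFN-gamma mixture; protective hits raise ATP signal compared with cytokine alone wells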
[1] = molecular target: Dual specificity protein phosphatase 3 (Homo sapiens, UniProt P51452); test: SAR VHR1 absorbance Assay for In Vitro dose response studies. [Related pubchem assays (depositor defined):AID1654, AID1661, AID1878, AID1992, AID2004]
Exodeoxyribonuclease V = molecular target: T1, Exodeoxyribonuclease V (Escherichia coli (strain K12), UniProt P04993+P07648+P08394); test: E. coli RecBCD inhibitors, dose response, counter-screen for AddAB inhibitor project, absorbance, V66 E. coli, mutant T4 phage (AID 492957); type: functional, cell-based, Escherichia coli str. K-12 substr. MG1655
T1 sequence (P04993 whole entry): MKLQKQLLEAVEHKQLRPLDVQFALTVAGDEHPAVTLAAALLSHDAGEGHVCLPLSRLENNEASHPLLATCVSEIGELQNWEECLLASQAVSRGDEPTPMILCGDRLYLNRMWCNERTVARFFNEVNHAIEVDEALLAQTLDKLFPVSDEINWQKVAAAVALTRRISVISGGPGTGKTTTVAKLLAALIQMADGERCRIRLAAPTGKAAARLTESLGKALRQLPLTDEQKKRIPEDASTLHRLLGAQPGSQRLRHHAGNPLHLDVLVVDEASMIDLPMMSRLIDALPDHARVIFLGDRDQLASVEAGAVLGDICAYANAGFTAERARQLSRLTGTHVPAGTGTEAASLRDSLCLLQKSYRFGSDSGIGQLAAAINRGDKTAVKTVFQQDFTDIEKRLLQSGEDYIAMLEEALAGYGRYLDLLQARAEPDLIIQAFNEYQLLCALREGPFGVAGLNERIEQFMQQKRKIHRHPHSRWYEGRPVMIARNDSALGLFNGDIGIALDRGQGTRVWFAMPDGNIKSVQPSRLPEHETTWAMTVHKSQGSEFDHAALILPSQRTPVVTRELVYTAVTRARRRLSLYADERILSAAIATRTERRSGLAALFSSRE
T1 sequence (P07648 whole entry): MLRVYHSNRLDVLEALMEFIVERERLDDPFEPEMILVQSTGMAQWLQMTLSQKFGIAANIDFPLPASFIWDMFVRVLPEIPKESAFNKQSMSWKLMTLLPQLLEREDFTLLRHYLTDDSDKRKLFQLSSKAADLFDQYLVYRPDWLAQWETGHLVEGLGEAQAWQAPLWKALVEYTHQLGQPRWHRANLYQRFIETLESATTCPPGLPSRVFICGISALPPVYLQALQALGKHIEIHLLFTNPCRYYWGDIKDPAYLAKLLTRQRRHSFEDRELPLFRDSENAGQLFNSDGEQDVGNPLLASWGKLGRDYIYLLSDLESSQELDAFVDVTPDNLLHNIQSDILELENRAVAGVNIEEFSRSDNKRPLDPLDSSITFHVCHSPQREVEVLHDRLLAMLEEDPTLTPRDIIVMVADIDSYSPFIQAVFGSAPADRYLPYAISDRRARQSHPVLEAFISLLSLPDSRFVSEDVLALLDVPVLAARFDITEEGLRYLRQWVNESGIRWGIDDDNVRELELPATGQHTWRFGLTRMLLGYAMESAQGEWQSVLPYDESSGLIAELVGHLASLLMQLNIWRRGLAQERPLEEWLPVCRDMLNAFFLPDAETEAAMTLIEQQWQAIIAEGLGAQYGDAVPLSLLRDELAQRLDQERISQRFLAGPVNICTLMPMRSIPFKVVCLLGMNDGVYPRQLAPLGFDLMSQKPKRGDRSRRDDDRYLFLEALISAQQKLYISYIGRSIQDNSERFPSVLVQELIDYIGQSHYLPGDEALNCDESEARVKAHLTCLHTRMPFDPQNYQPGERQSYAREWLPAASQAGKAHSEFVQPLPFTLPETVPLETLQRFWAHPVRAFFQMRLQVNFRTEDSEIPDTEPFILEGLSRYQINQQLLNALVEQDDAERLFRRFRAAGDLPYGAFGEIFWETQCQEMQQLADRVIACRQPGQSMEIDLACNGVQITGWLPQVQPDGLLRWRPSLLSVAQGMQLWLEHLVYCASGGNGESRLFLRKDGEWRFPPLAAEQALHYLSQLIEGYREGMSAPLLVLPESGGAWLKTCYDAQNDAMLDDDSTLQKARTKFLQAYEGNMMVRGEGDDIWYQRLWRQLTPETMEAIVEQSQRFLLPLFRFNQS
T1 sequence (P08394 whole entry): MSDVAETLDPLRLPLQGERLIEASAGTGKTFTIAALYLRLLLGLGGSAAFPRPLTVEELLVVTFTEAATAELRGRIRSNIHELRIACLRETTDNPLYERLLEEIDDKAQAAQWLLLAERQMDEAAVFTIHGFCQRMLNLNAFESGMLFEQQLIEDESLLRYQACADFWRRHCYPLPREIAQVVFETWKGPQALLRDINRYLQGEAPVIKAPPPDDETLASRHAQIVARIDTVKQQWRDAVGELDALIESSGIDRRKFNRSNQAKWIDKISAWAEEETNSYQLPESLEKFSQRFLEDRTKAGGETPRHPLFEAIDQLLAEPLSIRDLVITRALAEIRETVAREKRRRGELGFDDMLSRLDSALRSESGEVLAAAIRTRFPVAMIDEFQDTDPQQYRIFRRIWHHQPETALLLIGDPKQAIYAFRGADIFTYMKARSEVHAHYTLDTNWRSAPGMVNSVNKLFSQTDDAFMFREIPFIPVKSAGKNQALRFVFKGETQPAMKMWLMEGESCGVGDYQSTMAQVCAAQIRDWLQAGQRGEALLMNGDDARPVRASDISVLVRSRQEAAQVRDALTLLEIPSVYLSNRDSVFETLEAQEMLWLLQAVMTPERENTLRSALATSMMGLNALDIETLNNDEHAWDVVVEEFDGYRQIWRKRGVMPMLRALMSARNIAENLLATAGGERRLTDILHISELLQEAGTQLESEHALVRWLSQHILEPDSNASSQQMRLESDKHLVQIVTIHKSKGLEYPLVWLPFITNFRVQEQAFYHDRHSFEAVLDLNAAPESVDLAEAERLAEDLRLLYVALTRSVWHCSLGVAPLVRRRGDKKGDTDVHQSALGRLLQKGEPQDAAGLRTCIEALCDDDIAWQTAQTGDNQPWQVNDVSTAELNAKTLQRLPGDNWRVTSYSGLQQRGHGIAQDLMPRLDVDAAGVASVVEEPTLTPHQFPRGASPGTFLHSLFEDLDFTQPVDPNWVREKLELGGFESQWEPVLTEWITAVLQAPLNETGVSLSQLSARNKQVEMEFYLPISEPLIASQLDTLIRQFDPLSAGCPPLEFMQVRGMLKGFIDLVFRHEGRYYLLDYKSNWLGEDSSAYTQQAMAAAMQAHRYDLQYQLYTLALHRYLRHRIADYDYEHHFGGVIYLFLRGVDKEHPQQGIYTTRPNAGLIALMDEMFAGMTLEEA

[2] = molecular target: Serine/threonine-protein phosphatase (Homo sapiens, UniProt Q9BPW0); test: PP5 phosphatase inhibitors, dose response, biochemical, fluorescence (AID 2395)
Sequence of Serine/threonine-protein phosphatase (Q9BPW0 whole entry): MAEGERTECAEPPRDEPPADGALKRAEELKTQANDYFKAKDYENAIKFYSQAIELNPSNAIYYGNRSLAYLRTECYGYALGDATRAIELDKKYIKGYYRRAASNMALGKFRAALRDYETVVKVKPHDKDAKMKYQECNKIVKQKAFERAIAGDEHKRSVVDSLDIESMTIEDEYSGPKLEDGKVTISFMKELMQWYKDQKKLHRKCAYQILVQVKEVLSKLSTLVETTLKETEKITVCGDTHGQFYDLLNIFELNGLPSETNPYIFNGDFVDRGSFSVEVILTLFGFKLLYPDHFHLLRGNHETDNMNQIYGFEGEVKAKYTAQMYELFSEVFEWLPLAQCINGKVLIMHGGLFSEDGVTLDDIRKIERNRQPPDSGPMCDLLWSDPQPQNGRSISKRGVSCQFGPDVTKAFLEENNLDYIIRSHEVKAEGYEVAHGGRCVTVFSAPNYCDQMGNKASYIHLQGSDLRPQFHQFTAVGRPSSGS

Sequence of Dual specificity protein phosphatase 3 (P51452 whole entry): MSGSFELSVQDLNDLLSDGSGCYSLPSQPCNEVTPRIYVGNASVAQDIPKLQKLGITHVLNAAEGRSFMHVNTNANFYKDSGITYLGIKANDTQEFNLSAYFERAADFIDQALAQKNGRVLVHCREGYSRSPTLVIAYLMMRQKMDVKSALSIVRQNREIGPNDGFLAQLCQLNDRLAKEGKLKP

In the case of COC(=O)c1cc(C)nc2c1C(=O)C(=O)C=C2N1CCOCC1, the AC50 (INS1) is reported as 2.71 µM (active).

With NS(=O)(=O)c1cc(C(=O)NC2CCSc3ccccc32)ccc1Cl (centres undefined) the IC50 [1] was 0.121 µM (active).

For O=C1c2ccccc2C(=O)c2[nH]c(O)nc21, the IC50 (Exodeoxyribonuclease V) was > 119 µM (inactive).

In the case of CCOC(=O)C1=C(C)OC2(O)c3ccccc3C(=O)C12O (centres undefined), the IC50 [2] is reported as > 67 µM (not active).
